Data on two compounds can be found in publication PMC10017428, “Structure of VanS from vancomycin-resistant enterococci: A sensor kinase with weak ATP binding” (The Journal of Biological Chemistry, 2023).

The target of assay [1] is T1, VanSA CA domain (Enterococcus faecium, UniProt Q06240).
T1 construct: gene vanS
The assay can be described thus: biochemical.

Assay [2] concerns the target T2, VanSC CA domain (Enterococcus gallinarum, UniProt Q9KJT3). As to the kind of experiment: biochemical.
Another assay has as its target EnvZ CA domain (Escherichia coli, UniProt P0AEJ4). As to the kind of experiment: biochemical.
For assay [3], the target named is T2, VanSC CA domain. The assay can be described thus: TNP-ATP displacement, fluorescence. The format is binding. As to conditions: 50 mM Tris-Cl pH 7.5, 50 mM KCl, 5 mM MgCl2, 10 μM TNP-ATP; competitive.
Assay [4] deals with T1, VanSA CA domain. The assay can be described thus: TNP-ATP displacement, fluorescence. The format is binding. The conditions noted are these: 50 mM Tris-Cl pH 7.5, 50 mM KCl, 5 mM MgCl2, 10 μM TNP-ATP; competitive.

T2 sequence (Q9KJT3 208-361): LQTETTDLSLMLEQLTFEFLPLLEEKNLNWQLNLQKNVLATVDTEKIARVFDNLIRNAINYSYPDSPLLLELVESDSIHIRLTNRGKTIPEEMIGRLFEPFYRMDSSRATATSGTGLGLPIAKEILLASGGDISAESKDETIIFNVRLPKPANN
T1 sequence (Q06240 221-384): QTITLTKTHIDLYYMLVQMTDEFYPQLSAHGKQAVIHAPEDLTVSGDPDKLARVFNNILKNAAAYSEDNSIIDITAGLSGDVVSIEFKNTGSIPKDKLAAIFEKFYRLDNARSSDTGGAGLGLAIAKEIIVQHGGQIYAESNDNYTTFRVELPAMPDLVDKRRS
Sequence of EnvZ CA domain (P0AEJ4 289-450): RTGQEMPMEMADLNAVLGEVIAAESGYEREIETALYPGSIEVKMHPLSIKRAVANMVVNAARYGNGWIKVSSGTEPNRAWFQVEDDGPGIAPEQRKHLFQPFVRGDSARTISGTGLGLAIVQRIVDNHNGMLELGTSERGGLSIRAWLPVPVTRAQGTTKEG

For `Nc1ncnc2c1ncn2[C@@H]1O[C@H](COP(=O)(O)OP(=O)(O)OP(=O)(O)O)[C@@H](O)[C@H]1O` [ATP], the Kd is 3.948 ± 0.001 mM at VanSA CA domain [1], 3.128 ± 0.0004 mM on VanSC CA domain [2] and 83.3 ± 0.2 µM at EnvZ CA domain.
For `Nc1nc2c(ncn2[C@@H]2O[C@H](COP(=O)(O)OP(=O)(O)OP(=O)(O)O)[C@@H](O)[C@H]2O)c(=O)[nH]1` [GTP], the “TNP-ATP displacement, fluorescence” value on VanSC CA domain [3] was “GTP bound less tightly than ATP to both VanSA and VanSC”; on VanSA CA domain [4], “GTP bound less tightly than ATP to both VanSA and VanSC”.

The term Kd denotes the free concentration of one partner at which half of the binding sites on the other are occupied at equilibrium, for simple one-to-one binding. Read a high Kd as a looser complex.
